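Cells were grown in 96-well plates and exposed to each compound for 48 hours at five concentrations; endpoints were interpolated linearly between bracketing concentrations, or set to the highest concentration if not reached. GI50 is the concentration that inhibits growth by half. At the TGI there is no net growth.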
Columns and labels:
Experiment in all cases: NCI tumour cell line growth inhibition, 48 h
786-0 renal = tested on: 786-0 renal
A498 renal = tested on: A498 renal
A549 NSCLC = tested on: A549 NSCLC
ACHN renal = tested on: ACHN renal
BT-549 breast = tested on: BT-549 breast
CAKI-1 renal = tested on: CAKI-1 renal
CCRF-CEM leukemia = tested on: CCRF-CEM leukemia
COLO 205 colon = tested on: COLO 205 colon
DU-145 prostate = tested on: DU-145 prostate
HCC-2998 colon = tested on: HCC-2998 colon
HCT-116 colon = tested on: HCT-116 colon
HCT-15 colon = tested on: HCT-15 colon
HL-60(TB) leukemia = tested on: HL-60(TB) leukemia
HOP-62 NSCLC = tested on: HOP-62 NSCLC
HOP-92 NSCLC = tested on: HOP-92 NSCLC
HS 578T breast = tested on: HS 578T breast
HT29 colon = tested on: HT29 colon
IGROV1 ovarian = tested on: IGROV1 ovarian
K-562 leukemia = tested on: K-562 leukemia
KM12 colon = tested on: KM12 colon
LOX IMVI melanoma = tested on: LOX IMVI melanoma
M14 melanoma = tested on: M14 melanoma
MALME-3M melanoma = tested on: MALME-3M melanoma
MCF7 breast = tested on: MCF7 breast
MDA-MB-231 breast = tested on: MDA-MB-231 breast
MDA-MB-435 = tested on: MDA-MB-435
MOLT-4 leukemia = tested on: MOLT-4 leukemia
NCI-H226 lung = tested on: NCI-H226 lung
NCI-H23 lung = tested on: NCI-H23 lung
NCI-H460 lung = tested on: NCI-H460 lung
NCI-H522 lung = tested on: NCI-H522 lung
NCI/ADR-RES ovarian = tested on: NCI/ADR-RES ovarian
OVCAR-3 ovarian = tested on: OVCAR-3 ovarian
OVCAR-4 ovarian = tested on: OVCAR-4 ovarian
OVCAR-5 ovarian = tested on: OVCAR-5 ovarian
OVCAR-8 ovarian = tested on: OVCAR-8 ovarian
PC-3 prostate = tested on: PC-3 prostate
RPMI-8226 leukemia = tested on: RPMI-8226 leukemia
RXF 393 renal = tested on: RXF 393 renal
SF-268 CNS = tested on: SF-268 CNS
SF-295 CNS = tested on: SF-295 CNS
SF-539 CNS = tested on: SF-539 CNS
SK-MEL-2 melanoma = tested on: SK-MEL-2 melanoma
SK-MEL-28 melanoma = tested on: SK-MEL-28 melanoma
SK-MEL-5 melanoma = tested on: SK-MEL-5 melanoma
SK-OV-3 ovarian = tested on: SK-OV-3 ovarian
SN12C renal = tested on: SN12C renal
SNB-19 CNS = tested on: SNB-19 CNS
SNB-75 CNS = tested on: SNB-75 CNS
SR leukemia = tested on: SR leukemia
SW-620 colon = tested on: SW-620 colon
T-47D breast = tested on: T-47D breast
TK-10 renal = tested on: TK-10 renal
U251 CNS = tested on: U251 CNS
UACC-257 melanoma = tested on: UACC-257 melanoma
UACC-62 melanoma = tested on: UACC-62 melanoma
UO-31 renal = tested on: UO-31 renal

O=C1NC(=O)/C(=C/c2ccc3ncccc3c2)S1 was tested, and the GI50 (786-0 renal) was greater than 25 µM, the TGI (786-0 renal) was greater than 25 µM and the GI50 (A498 renal) was 0.307 µM. For the same compound, the TGI (A498 renal) was 2.2 µM, the GI50 (A549 NSCLC) was greater than 23.1 µM and the TGI (A549 NSCLC) was greater than 25 µM. The GI50 (ACHN renal) was greater than 25 µM, the TGI (ACHN renal) was greater than 25 µM and the GI50 (BT-549 breast) was greater than 25 µM. For the same compound, the TGI (BT-549 breast) was greater than 25 µM, the GI50 (CAKI-1 renal) was greater than 25 µM and the TGI (CAKI-1 renal) was greater than 25 µM. For the same compound, the GI50 (CCRF-CEM leukemia) was greater than 25 µM, the TGI (CCRF-CEM leukemia) was greater than 25 µM and the GI50 (COLO 205 colon) was greater than 25 µM. The TGI (COLO 205 colon) was greater than 25 µM, the GI50 (DU-145 prostate) was greater than 25 µM and the TGI (DU-145 prostate) was greater than 25 µM. For the same compound, the GI50 (HCC-2998 colon) was greater than 25 µM, the TGI (HCC-2998 colon) was greater than 25 µM and the GI50 (HCT-116 colon) was greater than 25 µM. The TGI (HCT-116 colon) was greater than 25 µM, the GI50 (HCT-15 colon) was greater than 21.1 µM and the TGI (HCT-15 colon) was greater than 25 µM. The GI50 (HL-60(TB) leukemia) was 8.14 µM, the TGI (HL-60(TB) leukemia) was greater than 25 µM and the GI50 (HOP-62 NSCLC) was greater than 25 µM. It also gave a TGI (HOP-62 NSCLC) greater than 25 µM, a GI50 (HOP-92 NSCLC) of 0.749 µM and a TGI (HOP-92 NSCLC) greater than 22.8 µM. It also gave a GI50 (HS 578T breast) of 1.96 µM, a TGI (HS 578T breast) greater than 18.7 µM and a GI50 (HT29 colon) of 19.9 µM. The TGI (HT29 colon) was greater than 25 µM, the GI50 (IGROV1 ovarian) was greater than 6.1 µM and the TGI (IGROV1 ovarian) was greater than 21.7 µM. The GI50 (K-562 leukemia) was greater than 25 µM, the TGI (K-562 leukemia) was greater than 25 µM and the GI50 (KM12 colon) was greater than 25 µM. The TGI (KM12 colon) was greater than 25 µM, the GI50 (LOX IMVI melanoma) was 13.7 µM and the TGI (LOX IMVI melanoma) was greater than 25 µM. It also gave a GI50 (M14 melanoma) of 13.7 µM, a TGI (M14 melanoma) greater than 25 µM and a GI50 (MALME-3M melanoma) of 7.11 µM. It also gave a TGI (MALME-3M melanoma) greater than 20.7 µM, a GI50 (MCF7 breast) of 2.02 µM and a TGI (MCF7 breast) greater than 25 µM. For the same compound, the GI50 (MDA-MB-231 breast) was greater than 25 µM, the TGI (MDA-MB-231 breast) was greater than 25 µM and the GI50 (MDA-MB-435) was greater than 25 µM. The TGI (MDA-MB-435) was greater than 25 µM, the GI50 (MOLT-4 leukemia) was greater than 25 µM and the TGI (MOLT-4 leukemia) was greater than 25 µM. For the same compound, the GI50 (NCI-H226 lung) was greater than 25 µM, the TGI (NCI-H226 lung) was greater than 25 µM and the GI50 (NCI-H23 lung) was greater than 25 µM. It also gave a TGI (NCI-H23 lung) greater than 25 µM, a GI50 (NCI-H460 lung) of 12.6 µM and a TGI (NCI-H460 lung) greater than 25 µM. For the same compound, the GI50 (NCI-H522 lung) was greater than 20.3 µM, the TGI (NCI-H522 lung) was greater than 25 µM and the GI50 (NCI/ADR-RES ovarian) was greater than 25 µM. For the same compound, the TGI (NCI/ADR-RES ovarian) was greater than 25 µM, the GI50 (OVCAR-3 ovarian) was greater than 25 µM and the TGI (OVCAR-3 ovarian) was greater than 25 µM. For the same compound, the GI50 (OVCAR-4 ovarian) was greater than 25 µM, the TGI (OVCAR-4 ovarian) was greater than 25 µM and the GI50 (OVCAR-5 ovarian) was 8.3 µM. It also gave a TGI (OVCAR-5 ovarian) greater than 25 µM, a GI50 (OVCAR-8 ovarian) greater than 25 µM and a TGI (OVCAR-8 ovarian) greater than 25 µM. The GI50 (PC-3 prostate) was 17.9 µM, the TGI (PC-3 prostate) was greater than 25 µM and the GI50 (RPMI-8226 leukemia) was greater than 25 µM. It also gave a TGI (RPMI-8226 leukemia) greater than 25 µM, a GI50 (RXF 393 renal) greater than 23.2 µM and a TGI (RXF 393 renal) greater than 25 µM. For the same compound, the GI50 (SF-268 CNS) was greater than 25 µM, the TGI (SF-268 CNS) was greater than 25 µM and the GI50 (SF-295 CNS) was greater than 25 µM. It also gave a TGI (SF-295 CNS) greater than 25 µM, a GI50 (SF-539 CNS) greater than 25 µM and a TGI (SF-539 CNS) greater than 25 µM. For the same compound, the GI50 (SK-MEL-2 melanoma) was greater than 25 µM, the TGI (SK-MEL-2 melanoma) was greater than 25 µM and the GI50 (SK-MEL-28 melanoma) was 17.2 µM. For the same compound, the TGI (SK-MEL-28 melanoma) was greater than 25 µM, the GI50 (SK-MEL-5 melanoma) was greater than 25 µM and the TGI (SK-MEL-5 melanoma) was greater than 25 µM. For the same compound, the GI50 (SK-OV-3 ovarian) was 6.08 µM, the TGI (SK-OV-3 ovarian) was greater than 25 µM and the GI50 (SN12C renal) was greater than 25 µM. For the same compound, the TGI (SN12C renal) was greater than 25 µM, the GI50 (SNB-19 CNS) was greater than 25 µM and the TGI (SNB-19 CNS) was greater than 25 µM. It also gave a GI50 (SNB-75 CNS) of 1.4 µM, a TGI (SNB-75 CNS) greater than 25 µM and a GI50 (SR leukemia) greater than 25 µM. The TGI (SR leukemia) was greater than 25 µM, the GI50 (SW-620 colon) was greater than 25 µM and the TGI (SW-620 colon) was greater than 25 µM. It also gave a GI50 (T-47D breast) of 1.23 µM, a TGI (T-47D breast) greater than 22.6 µM and a GI50 (TK-10 renal) of 6 µM. For the same compound, the TGI (TK-10 renal) was greater than 25 µM, the GI50 (U251 CNS) was greater than 25 µM and the TGI (U251 CNS) was greater than 25 µM. For the same compound, the GI50 (UACC-257 melanoma) was greater than 14.5 µM, the TGI (UACC-257 melanoma) was greater than 25 µM and the GI50 (UACC-62 melanoma) was 16.3 µM. It also gave a TGI (UACC-62 melanoma) greater than 25 µM, a GI50 (UO-31 renal) of 3.51 µM and a TGI (UO-31 renal) greater than 25 µM.

Source: PubChem BioAssay (NCI)
